Experimental data published in the NIST ThermoML archive (doi:10.1016/j.jct.2018.02.017).

How the values were obtained:
[1] = for Triple point temperature: DSC; for mass density: 100 kPa, Liquid, Vibrating tube method
[2] = Molar enthalpy of transition or fusion; details: DSC
[3] = mn = molality of the nth substance listed, in mol/kg; details: 298.15 K, 100 kPa, Liquid, Falling or rolling sphere viscometry
[4] = excess molar enthalpy (molar enthalpy of mixing); xn = mol fraction of the nth substance listed; details: 100 kPa, Liquid, Flow calorimetry
[5] = xn = mol fraction of the nth substance listed; details: 100 kPa, Liquid, Vibrating tube method

CCCC[N+]1(C)CCCC1.O=S(=O)([O-])C(F)(F)C(F)F
Details	Molar enthalpy of transition or fusion, [2] [kcal/mol]	Triple point temperature, [1] [K]
Crystal 1	2.61	318.5
Crystal 2	3.01	279.3

CCCCn1cc[n+](C)c1.O=S(=O)([O-])C(F)(F)C(F)F
[1]
Details	mass density [kg/m3]
288.15 K	1355.49
293.15 K	1351.46
298.15 K	1347.31
303.15 K	1343.19
308.15 K	1339.08
313.15 K	1335.01
318.15 K	1330.9
323.15 K	1326.84
328.15 K	1322.8
333.15 K	1318.77

CCCC[N+]1(C)CCCC1.O=S(=O)([O-])C(F)(F)C(F)F + O
[3]
Details	viscosity [mPa·s]
m1 = 0.01177	0.8996
m1 = 0.02018	0.9033
m1 = 0.02912	0.9095
m1 = 0.05104	0.9233
m1 = 0.07113	0.934
m1 = 0.09124	0.9463

CCCCn1cc[n+](C)c1.O=S(=O)([O-])C(F)(F)C(F)F + O
[3]
Details	viscosity [mPa·s]
m1 = 0.0216	0.9005
m1 = 0.02818	0.9042
m1 = 0.05086	0.9161
m1 = 0.06272	0.9229
m1 = 0.0705	0.9269
m1 = 0.0811	0.9328

CCCC[N+]1(C)CCCC1.N#CN=C=[N-] [1-butyl-1-methylpyrrolidinium dicyanamide]
[1]
Details	mass density [kg/m3]
288.15 K	1019.08
293.15 K	1016.25
298.15 K	1013.43
303.15 K	1010.62
308.15 K	1007.83
313.15 K	1005.05
318.15 K	1002.29

CCCC[N+]1(C)CCCC1.N#CN=C=[N-] [1-butyl-1-methylpyrrolidinium dicyanamide] + O
[3]
Details	viscosity [mPa·s]
m1 = 0.01007	0.8956
m1 = 0.01538	0.8983
m1 = 0.03088	0.9043
m1 = 0.04839	0.9119
m1 = 0.0703	0.921
m1 = 0.09073	0.9308

Details	excess molar enthalpy, [4] [kcal/mol]	mass density, [5] [kg/m3]
288.15 K, x1 = 0.000366	-0.00048	999.262
288.15 K, x1 = 0.000732	-0.000918	999.415
288.15 K, x1 = 0.001097	-0.00134	999.558
288.15 K, x1 = 0.001462	-0.00175	999.693
288.15 K, x1 = 0.001827	-0.00212	999.827
288.15 K, x1 = 0.002192	–	999.945
298.15 K, x1 = 0.000366	-0.00027	997.161
298.15 K, x1 = 0.000732	-0.000516	997.266
298.15 K, x1 = 0.001098	-0.000743	997.365
298.15 K, x1 = 0.001463	-0.000963	997.458
298.15 K, x1 = 0.001828	-0.00117	997.547
298.15 K, x1 = 0.002193	-0.00138	997.632
308.15 K, x1 = 0.000366	-6.21e-05	994.108
308.15 K, x1 = 0.000731	-0.0001	994.175
308.15 K, x1 = 0.001097	-0.000127	994.237
308.15 K, x1 = 0.001462	-0.00016	994.294
308.15 K, x1 = 0.001827	-0.000201	994.349
308.15 K, x1 = 0.002192	-0.00022	994.4
318.15 K, x1 = 0.000366	0.000141	990.258
318.15 K, x1 = 0.000731	0.000301	990.295
318.15 K, x1 = 0.001097	0.000471	990.326
318.15 K, x1 = 0.001462	0.000643	990.353
318.15 K, x1 = 0.001826	0.00082	990.377
318.15 K, x1 = 0.002192	0.000997	990.398

CCCCn1cc[n+](C)c1.N#CN=C=[N-] [1-butyl-3-methylimidazolium dicyanamide]
[1]
Details	mass density [kg/m3]
288.15 K	1065.64
293.15 K	1062.04
298.15 K	1059.22
303.15 K	1056.04
308.15 K	1052.88
313.15 K	1049.74
318.15 K	1046.63
323.15 K	1043.5
328.15 K	1040.4
333.15 K	1037.38

CCCCn1cc[n+](C)c1.N#CN=C=[N-] [1-butyl-3-methylimidazolium dicyanamide] + O
[3]
Details	viscosity [mPa·s]
m1 = 0.01061	0.8936
m1 = 0.01522	0.895
m1 = 0.03084	0.901
m1 = 0.05091	0.9086
m1 = 0.06874	0.9157
m1 = 0.08186	0.9219

Details	excess molar enthalpy, [4] [kcal/mol]	mass density, [5] [kg/m3]
288.15 K, x1 = 0.000389	5.5e-05	999.45
288.15 K, x1 = 0.000777	0.000139	999.8
288.15 K, x1 = 0.001165	0.000232	1000.14
288.15 K, x1 = 0.001552	0.000335	1000.47
288.15 K, x1 = 0.00194	0.000437	1000.79
288.15 K, x1 = 0.002327	0.000547	1001.11
298.15 K, x1 = 0.000388	0.000198	997.35
298.15 K, x1 = 0.000777	0.000428	997.65
298.15 K, x1 = 0.001165	0.000664	997.93
298.15 K, x1 = 0.001552	0.000903	998.21
298.15 K, x1 = 0.001939	0.00115	998.48
298.15 K, x1 = 0.002327	0.0014	998.75
308.15 K, x1 = 0.000389	0.000351	994.29
308.15 K, x1 = 0.000777	0.000739	994.54
308.15 K, x1 = 0.001165	0.00113	994.79
308.15 K, x1 = 0.001552	0.00152	995.02
308.15 K, x1 = 0.00194	0.0019	995.25
308.15 K, x1 = 0.002327	0.0023	995.48
318.15 K, x1 = 0.000388	0.000511	990.43
318.15 K, x1 = 0.000777	0.00106	990.65
318.15 K, x1 = 0.001165	0.00161	990.85
318.15 K, x1 = 0.001552	0.00215	991.06
318.15 K, x1 = 0.00194	0.00269	991.25
318.15 K, x1 = 0.002328	0.00323	991.45
